Each block holds one compound with its values, some of them ahead of it.
How the values were obtained:
[1] = tested on: TNF-α in human peripheral blood mononuclear cells (hPBMCs); experiment: Inhibitory activity against TNF-α in human peripheral blood mononuclear cells; format: cell-based; conditions: PBMC, TNF-α in supernatant, 1 ng/mL LPS, 24 hours, read-out: hPBMC IC50
Source text: In Vitro Detection of the Inhibitory Activity of Compounds Against TNF-α in Human Peripheral Blood Mononuclear Cells
Experimental objective: to express the anti-inflammatory activity at the cellular level of the test compound based on the level of TNF-α in human peripheral blood mononuclear cells (hPBMCs).
Procedure: • 1. Normal human whole blood was collected into an EDTA anticoagulation tube; • 2. The PBMCs were separated by Ficoll density gradient centrifugation, and then counted. The cell concentration was adjusted to 2×10^6/mL; • 3. To each well of a U-bottomed 96-well plate were added 2×10^5 cells, 1 ng/mL LPS, and DMSO solutions of compound at concentrations of 100 μM, 10 μM, 1 μM, 100 nM, 10 nM, 1 nM, 100 pM and 10 pM, 200 μL per well; • 4. The mixture was incubated for 24 hours, and then the supernatant was collected; • 5. The level of TNF-α in supernatant was detected by ELIZA, Graphpad Prism software was used to fit inhibition curves and IC50 was calculated.

CYP2D6 = CYP2D6 (Homo sapiens (Human), UniProt P10635); experiment: Inhibition of human liver microsomal cytochrome P450 isoenzyme CYP2D6; format: in vitro ADME; conditions: human liver microsomes, probe substrate dextromethorphan
Sequence of CYP2D6 (P10635 whole entry): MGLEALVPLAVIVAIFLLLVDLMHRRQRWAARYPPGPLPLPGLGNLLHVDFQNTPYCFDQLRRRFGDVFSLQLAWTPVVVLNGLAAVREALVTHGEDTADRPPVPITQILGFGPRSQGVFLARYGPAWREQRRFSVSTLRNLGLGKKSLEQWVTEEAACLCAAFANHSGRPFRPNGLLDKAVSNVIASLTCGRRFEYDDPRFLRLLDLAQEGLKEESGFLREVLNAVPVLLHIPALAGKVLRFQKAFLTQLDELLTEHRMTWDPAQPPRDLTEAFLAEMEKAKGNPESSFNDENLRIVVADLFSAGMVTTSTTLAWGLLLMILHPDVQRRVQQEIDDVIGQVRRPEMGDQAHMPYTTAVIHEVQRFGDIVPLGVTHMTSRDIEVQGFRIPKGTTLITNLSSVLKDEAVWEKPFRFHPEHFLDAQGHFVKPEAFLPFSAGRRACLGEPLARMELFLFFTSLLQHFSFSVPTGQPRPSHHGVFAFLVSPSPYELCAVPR
Description: (§1) Inhibitory Effect on the Activity of Isoenzymes (CYP1A2, CYP2C9, CYP2C19, CYP2D6 and CYP3A4) of Human Liver Microsomal Cytochrome P450
(§2) A total of 5 specific probe substrates of 5 isoenzymes of CYP, namely phenacetin (CYP1A2), diclofenac (CYP2C9), (S)-mephenytoin (CYP2C19), dextromethorphan (CYP2D6) and midazolam (CYP3A4) are each co-incubated with human liver microsomes and test compound, and then reduced nicotinamide adenine dinucleotide phosphate (NADPH) was added to initiate the reaction.

CYP2C9 = CYP2C9 (Homo sapiens (Human), UniProt P11712); experiment: Inhibition of human liver microsomal cytochrome P450 isoenzyme CYP2C9; format: in vitro ADME; conditions: human liver microsomes, probe substrate diclofenac
Sequence of CYP2C9 (P11712 whole entry): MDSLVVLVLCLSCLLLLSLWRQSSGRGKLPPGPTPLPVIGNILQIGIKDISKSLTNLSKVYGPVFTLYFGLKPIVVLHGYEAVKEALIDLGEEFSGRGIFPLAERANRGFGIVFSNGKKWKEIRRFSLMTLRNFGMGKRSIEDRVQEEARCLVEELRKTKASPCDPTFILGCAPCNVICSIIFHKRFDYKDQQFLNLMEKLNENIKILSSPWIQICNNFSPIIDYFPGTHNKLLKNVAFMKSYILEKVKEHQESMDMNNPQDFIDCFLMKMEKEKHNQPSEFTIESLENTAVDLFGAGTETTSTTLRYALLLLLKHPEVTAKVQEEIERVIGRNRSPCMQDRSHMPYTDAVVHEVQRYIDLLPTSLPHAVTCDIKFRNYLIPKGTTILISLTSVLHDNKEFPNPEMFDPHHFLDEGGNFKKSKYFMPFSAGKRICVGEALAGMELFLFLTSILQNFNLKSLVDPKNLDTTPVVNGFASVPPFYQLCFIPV
Description: as §1, §2

CYP1A2 = CYP1A2 (Homo sapiens (Human), UniProt P05177); experiment: biochemical; format: in vitro ADME
Sequence of CYP1A2 (P05177 whole entry): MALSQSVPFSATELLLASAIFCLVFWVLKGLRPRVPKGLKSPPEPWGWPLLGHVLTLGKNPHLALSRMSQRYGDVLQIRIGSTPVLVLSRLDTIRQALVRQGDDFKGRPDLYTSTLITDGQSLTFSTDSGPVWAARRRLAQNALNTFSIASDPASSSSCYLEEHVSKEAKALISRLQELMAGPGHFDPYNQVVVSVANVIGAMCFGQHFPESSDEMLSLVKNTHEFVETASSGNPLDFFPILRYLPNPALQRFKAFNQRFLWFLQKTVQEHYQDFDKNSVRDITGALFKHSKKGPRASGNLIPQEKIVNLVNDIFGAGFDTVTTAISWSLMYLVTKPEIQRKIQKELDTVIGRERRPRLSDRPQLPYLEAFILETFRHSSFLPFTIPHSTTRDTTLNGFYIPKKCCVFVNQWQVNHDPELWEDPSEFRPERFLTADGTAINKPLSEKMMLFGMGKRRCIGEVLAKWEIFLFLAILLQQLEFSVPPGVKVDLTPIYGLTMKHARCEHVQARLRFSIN
Description: as §1, §2

CYP3A4 = CYP3A4 (Homo sapiens (Human), UniProt P08684); experiment: Inhibition of human liver microsomal cytochrome P450 isoenzyme CYP3A4; format: in vitro ADME; conditions: human liver microsomes, probe substrate midazolam
Sequence of CYP3A4 (P08684 whole entry): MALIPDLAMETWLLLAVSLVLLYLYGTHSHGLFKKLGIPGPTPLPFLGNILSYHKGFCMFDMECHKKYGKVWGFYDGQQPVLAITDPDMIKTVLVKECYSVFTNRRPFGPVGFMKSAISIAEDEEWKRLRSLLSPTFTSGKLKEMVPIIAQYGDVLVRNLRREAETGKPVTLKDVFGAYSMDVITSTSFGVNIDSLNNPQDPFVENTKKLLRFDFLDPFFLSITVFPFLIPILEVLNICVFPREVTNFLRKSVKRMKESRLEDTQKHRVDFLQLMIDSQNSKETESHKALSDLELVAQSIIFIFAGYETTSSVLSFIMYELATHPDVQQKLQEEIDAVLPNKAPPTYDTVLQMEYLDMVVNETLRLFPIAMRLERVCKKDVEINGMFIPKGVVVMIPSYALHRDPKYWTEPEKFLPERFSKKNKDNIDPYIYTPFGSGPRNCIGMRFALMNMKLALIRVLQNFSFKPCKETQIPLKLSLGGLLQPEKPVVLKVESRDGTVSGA
Description: as §1, §2

CYP2C19 = CYP2C19 (Homo sapiens (Human), UniProt P33261); experiment: Inhibition of human liver microsomal cytochrome P450 isoenzyme CYP2C19; format: in vitro ADME; conditions: human liver microsomes, probe substrate (S)-mephenytoin
Sequence of CYP2C19 (P33261 whole entry): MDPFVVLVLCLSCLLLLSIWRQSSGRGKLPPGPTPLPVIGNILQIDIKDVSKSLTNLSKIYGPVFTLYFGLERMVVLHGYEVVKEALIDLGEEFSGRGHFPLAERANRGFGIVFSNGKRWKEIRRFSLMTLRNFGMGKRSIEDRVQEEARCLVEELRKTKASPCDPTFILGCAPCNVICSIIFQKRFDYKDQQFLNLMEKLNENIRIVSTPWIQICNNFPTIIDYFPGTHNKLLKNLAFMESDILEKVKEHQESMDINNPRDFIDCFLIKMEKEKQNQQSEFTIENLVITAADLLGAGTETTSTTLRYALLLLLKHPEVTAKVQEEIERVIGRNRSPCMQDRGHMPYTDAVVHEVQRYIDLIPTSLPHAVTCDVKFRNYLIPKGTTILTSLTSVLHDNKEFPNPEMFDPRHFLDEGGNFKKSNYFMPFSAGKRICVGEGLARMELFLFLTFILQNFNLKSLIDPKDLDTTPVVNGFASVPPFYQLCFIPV
Description: as §1, §2

[2] = reported in literature; cited from earlier work
[3] = reported in literature; cited from earlier work; remark: listed apart in the source
[4] = Pharmacokinetic experiment in beagle dogs; format: in vivo; conditions: male, dog, plasma
Description: Pharmacokinetic Experiment in Beagle Dogs
In this study, male beagle dogs were selected as test animals, and liquid chromatography-tandem mass spectrometry (LC-MS/MS) method was used for quantitatively measuring the drug concentration in plasma of beagle dogs at different time points after intravenous injection or oral administration of compound WX036 so as to evaluate the pharmacokinetic characteristics of the compound WX036 in beagle dogs.
The clear solution of compound WX036 was injected into two 10-12 kg beagle dogs via the cephalic vein or saphenous vein, and the clear solution of test compound was administered intragastrically to two 10-12 kg beagle dogs (overnight fasted). The animals were all subjected to approximately 500 μL of blood collection each time from peripheral veins at 0.0333, 0.0833, 0.25, 0.5, 1, 2, 4, 6, 8, and 24 hours post-dose, and the blood was transferred into commercial centrifuge tubes containing 0.85-1.15 mg of K2 EDTA*2H2O anticoagulant, and plasma was taken by centrifugation at 3000 g for 10 minutes at 4° C. The plasma concentration was measured by LC-MS/MS method, and the relevant pharmacokinetic parameters were calculated by WinNonlin™ Version 6.3 (Pharsight, Mountain View, CA) pharmacokinetic software using non-compartmental model linear logarithmic trapezoid method.

[5] = intravenous injection 0.5 mg/kg

SMILES: CCOc1cc2c(cc1OC)-c1c/c(=N\c3c(C)cc(C)cc3C)n(CCNc3nc[nH]n3)c(=O)n1CCC2 [WX004]
IC50 [1]: 0.33 nM

SMILES: COc1cc2c(cc1OC)-c1cc(Oc3c(C(C)C)cccc3C(C)C)nc(=O)n1CC2 [RPL565]
plasma clearance [2]: high
solubility [3]: poor

SMILES: COc1cc2c(cc1OC)-c1c/c(=N\c3c(C)cc(C)cc3C)n(CCNC(N)=O)c(=O)n1CC2 [RPL554]
plasma clearance [2]: high
solubility [3]: poor

SMILES: CCOc1cc2c(cc1OC)-c1c/c(=N\c3c(C)cc(C)cc3C)n(CCNC(=O)c3nnc[nH]3)c(=O)n1CC2 [WX015]
IC50 [1]: 0.36 nM

SMILES: CCOc1cc2c(cc1OC)-c1c/c(=N\c3c(C)cc(C)cc3C)n(CCNc3nc[nH]n3)c(=O)n1CC2 [WX003]
IC50 [1]: 3.1 nM

SMILES: CCOc1cc2c(cc1OC)-c1c/c(=N\c3c(C)cc(C)cc3C)n(CCNC(=O)c3cnn[nH]3)c(=O)n1CC2 [WX016]
IC50 [1]: 2.8 nM

Results, then the compound that gave them:

IC50 [1]: 0.09 nM
SMILES: CCOc1cc2c(cc1OC)-c1c/c(=N\c3c(C)cc(C)cc3C)n(CCNC(=O)c3ccn[nH]3)c(=O)n1CC2 [WX018]

IC50 [1]: 0.25 nM
SMILES: CCOc1cc2c(cc1OC)-c1c/c(=N\c3c(C)cc(C)cc3C)n(CCNC(=O)c3nnc[nH]3)c(=O)n1CCC2 [WX047]

IC50 (CYP2D6): 50 µM
IC50 (CYP2C9): 20 µM
IC50 (CYP1A2): 50 µM
IC50 (CYP3A4): 16 µM
IC50 (CYP2C19): 50 µM
SMILES: CCOc1cc2c(cc1OC)-c1c/c(=N\c3c(C)cc(C)cc3C)n(CCNC(=O)c3[nH]nnc3OC)c(=O)n1CC2 [WX026]

IC50 [1]: 1.8 nM
SMILES: CCOc1cc2c(cc1OC)-c1c/c(=N\c3c(C)cc(C)cc3C)n(CCC(=O)Nc3nnc[nH]3)c(=O)n1CC2 [WX054]

clearance [4, 5]: 70.3 mL/min/kg
half-life [4, 5]: 18 min
bioavailability ([4]; oral administration 3 mg/kg): 7.5%
IC50 (CYP2D6): 50 µM
IC50 (CYP1A2): 50 µM
IC50 (CYP3A4): 50 µM
IC50 (CYP2C19): 50 µM
SMILES: CCOc1cc2c(cc1OC)-c1c/c(=N\c3c(C)cc(C)cc3C)n(CCNC(=O)c3c(O)nnn3C)c(=O)n1CC2 [WX036]
